Test results reported in US9353089B2, “Compositions and methods for the treatment of malaria” (Saint Louis University, priority 2013, dated 2016).
pIC50: −log10 of the molar value. Like-named read-outs stand apart in the source and are kept apart here.

Tests used:
[1] = target: Plasmepsin-2 (PM-2; Plm II) (Plasmodium falciparum (isolate HB3), UniProt P46925); experiment: Plasmepsin-2 enzyme inhibition assay; format: biochemical
Method: Plasmepsin-2 (PM-2; Plm II) and Plasmepsin (PM-4; Plm IV) expression and purification was performed following the published protocols (Istvan E S and Goldberg D E, 2005). The final purified protein was activated by diluting the protein to 0.3 mg/mL in activating buffer (0.1 M citrate pH 4.5, 0.1% Tween-20, 50 mM dithiothreitol) and incubated at room temperature for 40 min, then the activated enzyme was diluted in assay buffer (50 mM sodium acetate pH 4.7, 0.01% Tween-20). The enzymatic inhibition reaction was performed in 384 well plates with a total volume of 20 μl. 10 μl of diluted PM-2 or PM-4 enzyme was added to the 384-well plate except blank wells (blank wells add 10 μL of assay buffer) and 20 nL of serials of diluted 1000× compounds were added to the wells with 520 Echo® Liquid Handling System (Labcyte Inc.). 10 μL PM-2 peptide substrate (AnaSpec, Cat#, 62050) with assay buffer was then added to final concentration of 20 μM to start the reaction. After incubation the reaction at room temperature for 60 min, the fluorescence intensity at Ex/Em=360 nm/535 nm was measured using EnVision multilabel plate reader (Perkin-Elmer). The IC50 values were obtained using Graph Pad Prism 4 and are reported in Tables 8 and 9 below as PM-2 IC50 values.

recombinant human BACE1 = recombinant human BACE1 (Homo sapiens, UniProt P56817); experiment: β-Secretase (BACE1) enzyme inhibition FRET assay; format: biochemical; settings: Table 13; read-out: BACE1 IC50
recombinant human BACE1, sequence (P56817 46-501 limits assumed): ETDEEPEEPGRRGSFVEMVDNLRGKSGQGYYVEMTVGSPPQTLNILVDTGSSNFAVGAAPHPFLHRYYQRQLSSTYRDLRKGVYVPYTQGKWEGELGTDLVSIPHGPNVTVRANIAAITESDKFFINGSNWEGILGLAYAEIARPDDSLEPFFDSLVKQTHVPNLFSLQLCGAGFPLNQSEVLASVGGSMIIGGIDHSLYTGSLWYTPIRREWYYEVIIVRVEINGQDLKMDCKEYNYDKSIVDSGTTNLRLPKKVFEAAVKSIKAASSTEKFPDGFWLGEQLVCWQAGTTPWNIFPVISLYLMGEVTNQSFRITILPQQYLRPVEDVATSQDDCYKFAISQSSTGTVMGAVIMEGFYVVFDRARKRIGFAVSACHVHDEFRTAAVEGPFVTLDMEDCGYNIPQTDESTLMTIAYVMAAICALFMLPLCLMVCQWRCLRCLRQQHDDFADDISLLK
Method: The enzymatic inhibition activity assays were determined using the fluorescence resonance energy transfer (FRET) assay. The assays were performed in a 384-well plate format. […] CatD and CatE were activated by incubation in assay buffer (0.1 M NaOAc, 0.2 M NaCl, pH 3.5) at room temperature for 30 min. Subsequently, the rhBACE-1 substrate (R&D Systems, catalog# ES004), the Cathepsin D and Cathepsin E substrate (R&D Systems, Catalog # ES001) were added accordingly to final concentration 20 μM to initiate the reaction. After 60 min incubation at room temperature, the time-resolved fluorescence at Ex/Em=360 nm/460 nm was measured on an EnVision multilabel plate reader (Perkin-Elmer). The analytical software, GraphPad Prism 5.0 (GraphPad Software, Inc., USA) was used to generate IC50 values via non-linear regression analysis, which are reported in Tables 8-13 below as BACE1 IC50 values.

[2] = system: Plasmodium falciparum 3D7 (CQ-sensitive); experiment: In vitro antimalarial assay (malaria SYBR Green I-based fluorescence, MSF), 3D7; format: cell-based; settings: for inhibition of growth at 1 µM: 3D7, 72 h, read-out: 3D7 % inh @ 1 μM
Procedure, shortened: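 Asynchronous P. falciparum 3D7 cultures (0.5% parasitemia, 2% hematocrit) were exposed to serially diluted compounds, in quadruplicate. Growth was then quantified by SYBR Green I fluorescence after adding lysis buffer containing 0.2 μL/mL dye.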

[3] = 3D7, read-out: 3D7 IC50 (μM), Table 13
[4] = 3D7, read-out: Pf3D7 IC50 (μM), Table 10
[5] = 3D7, Table 13, read-out: 3D7 IC50
[6] = 3D7, Table 11, read-out: Pf 3D7 IC50

Plasmepsin-2 (PM-2; Plm II), sequence (P46925 125-453 limits assumed): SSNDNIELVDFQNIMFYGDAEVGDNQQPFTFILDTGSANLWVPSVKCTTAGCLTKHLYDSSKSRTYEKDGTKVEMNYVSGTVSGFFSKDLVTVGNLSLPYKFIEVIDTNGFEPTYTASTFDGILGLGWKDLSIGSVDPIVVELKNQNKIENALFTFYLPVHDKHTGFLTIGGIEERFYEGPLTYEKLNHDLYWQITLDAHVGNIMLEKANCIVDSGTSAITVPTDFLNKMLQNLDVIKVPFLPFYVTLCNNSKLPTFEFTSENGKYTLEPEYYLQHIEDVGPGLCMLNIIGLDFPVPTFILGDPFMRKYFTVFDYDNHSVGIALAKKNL

Row | Compound | pIC50 ([1]; Table 13, read-out: PM-2 IC50) | pIC50 (recombinant human BACE1) | IC50 [2, 3] [µM] | pIC50 [2, 5] | also measured
1 | COc1ccc(C2(c3ccc(OC)cc3)NC(=N)N(C3CCN(C(C)=O)CC3)C2=O)cc1 [Example 310, 3-(1-acetylpiperidin-4-yl)-2-imino-5,5-bis(4-methoxyphenyl)imidazolidin-4-one] | 8.23 | ~5.59 | – | – | inhibition of growth at 1 µM [2]: 72%
2 | COc1ccc(C2(c3ccc(OC)cc3)NC(=N)N(Cc3ccccc3C#N)C2=O)cc1 [Example 305, 2-{[2-imino-4,4-bis(4-methoxyphenyl)-5-oxoimidazolidin-1-yl]methyl}benzonitrile] | 8.03 | 5.17 | – | – | inhibition of growth at 1 µM [2]: 81%
3 | N=C1NC(c2ccccc2)(c2ccccc2)C(=O)N1C1CCCCC1 [Example 100, 3-cyclohexyl-2-imino-5,5-diphenyl-imidazolidin-4-one] | 7.54 | < 5.00 | 3.85 | – | IC50 [2, 4]: 3.85 µM
4 | COc1ccc(C2(C3CC3)NC(=N)N(C3CCOCC3)C2=O)cc1-c1cccc(C#N)c1 (centres unmarked) [Example 491, 5′-(4-cyclopropyl-2-imino-5-oxo-1-(tetrahydro-2H-pyran-4-yl)imidazolidin-4-yl)-2′-methoxy-[1,1′-biphenyl]-3-carbonitrile] | 7.29 | 5.08 | 0.47 | – | –
5 | COc1ccc(C2(c3ccc(OC)cc3)NC(=N)N(C3CCN(C(=O)c4ccccc4)CC3)C2=O)cc1 [Example 311, 3-(1-benzoylpiperidin-4-yl)-2-imino-5,5-bis(4-methoxyphenyl)imidazolidin-4-one] | 8.70 | ~5.17 | – | – | inhibition of growth at 1 µM [2]: 81%
6 | COc1ccc(C2(c3ccc(OC)cc3)NC(=N)N(CC3CCN(C(=O)OC(C)(C)C)CC3)C2=O)cc1 [Example 313, tert-butyl 4-{[2-imino-4,4-bis(4-methoxyphenyl)-5-oxoimidazolidin-1-yl]methyl}piperidine-1-carboxylate] | 7.96 | ~5.66 | – | – | inhibition of growth at 1 µM [2]: 27%
7 | COc1ccc(C2(c3ccc(OC)cc3)NC(=N)N(Cc3ncccc3C)C2=O)cc1 [Example 302, 2-imino-5,5-bis(4-methoxyphenyl)-3-[(3-methylpyridin-2-yl)methyl]imidazolidin-4-one] | 7.31 | < 5.00 | 1.07 | – | –
8 | COc1ccc(C2(c3ccc(OC)cc3)NC(=N)N(CC3CCN(C)CC3)C2=O)cc1 [Example 308, 2-imino-5,5-bis(4-methoxyphenyl)-3-[(1-methylpiperidin-4-yl)methyl]imidazolidin-4-one] | 7.12 | < 5.00 | 0.677 | – | –
9 | COc1ccc(C2(C3CCCCC3)NC(=N)N(C3CCOCC3)C2=O)cc1 (centres unmarked) [Example 331, 5-cyclohexyl-2-imino-5-(4-methoxy-phenyl)-3-(oxan-4-yl)imidazolidin-4-one] | 7.24 | ~5.00 | 0.354 | – | –
10 | N=C1NC(c2cccc(-c3cncc(Cl)c3)c2)(C2CC2)C(=O)N1C1CCOCC1 (centres unmarked) [Example 489, 5-(3-(5-chloropyridin-3-yl)phenyl)-5-cyclopropyl-2-imino-3-(tetrahydro-2H-pyran-4-yl)imidazolidin-4-one] | 6.68 | 5.94 | 0.268 | – | –
11 | COc1ccc(C2(c3ccc(OC)cc3)NC(=N)N(C3CC3)C2=O)cc1 [Example 158, 3-cyclopropyl-2-imino-5,5-bis(4-methoxyphenyl)-imidazolidin-4-one] | 6.41 | < 5.00 | 4.11 | – | IC50 [2, 4]: 4.11 µM
12 | N=C1NC(c2cccc(-c3cccnc3)c2)(C2CCCCC2)C(=O)N1C1CCOCC1 (centres unmarked) [Example 517, 5-cyclohexyl-2-imino-5-(3-(pyridin-3-yl)phenyl)-3-(tetrahydro-2H-pyran-4-yl)imidazolidin-4-one] | 6.90 | 4.83 | 0.35 | – | –
13 | COc1ccc(C2(c3cnn(C)c3)NC(=N)N(C3CCOCC3)C2=O)cc1 (centres unmarked) [Example 336, 2-imino-5-(4-methoxyphenyl)-5-(1-methyl-1H-pyrazol-4-yl)-3-(oxan-4-yl)-imidazolidin-4-one] | 6.40 | < 5.00 | – | – | inhibition of growth at 1 µM [2]: 70%
14 | COc1ccc(C2(c3ccncc3)NC(=N)N(C3CCOCC3)C2=O)cc1 (centres unmarked) [Example 334, 2-imino-5-(4-methoxyphenyl)-3-(oxan-4-yl)-5-(pyridin-4-yl)-imidazolidin-4-one] | 7.07 | < 5.00 | – | – | inhibition of growth at 1 µM [2]: 14%
15 | COc1ccc(C2(c3ccc(OC)cc3)NC(=N)N(CC34CC5CC(CC(C5)C3)C4)C2=O)cc1 [Example 276, 3-(adamantan-1-ylmethyl)-2-imino-5,5-bis(4-methoxyphenyl)-imidazolidin-4-one] | 8.70 | 5.11 | 0.336 | – | –
16 | COc1ccc(C2(c3cncnc3)NC(=N)N(C3CCOCC3)C2=O)cc1 (centres unmarked) [Example 333, 2-imino-5-(4-methoxyphenyl)-3-(oxan-4-yl)-5-(pyrimidin-5-yl)imidazolidin-4-one] | 6.19 | < 5.00 | – | – | inhibition of growth at 1 µM [2]: 9%
17 | N#Cc1cncc(-c2cccc(C3(C4CC4)NC(=N)N(C4CCOCC4)C3=O)c2)c1 (centres unmarked) [Example 488, 5-(3-(4-cyclopropyl-2-imino-5-oxo-1-(tetrahydro-2H-pyran-4-yl)imidazolidin-4-yl)phenyl)nicotinonitrile] | 6.35 | 5.53 | 0.362 | – | –
18 | COc1cccc(C2(c3cccc(OC)c3)NC(=N)N(C3CC3)C2=O)c1 [Example 167, 3-cyclopropyl-2-imino-5,5-bis(3-methoxyphenyl)-imidazolidin-4-one] | 5.55 | – | – | 5.03 | –
19 | COc1ccc(C2(c3ccc(OC)cc3)NC(=N)N(Cc3c(C)cccc3C)C2=O)cc1 [Example 278, 3-[(2,6-dimethyl-phenyl)methyl]-2-imino-5,5-bis(4-methoxyphenyl)-imidazolidin-4-one] | 8.56 | – | – | 5.98 | –
20 | COc1ccc(C2(c3ccc(OC)cc3)NC(=S)N(C3CCCCC3)C2=O)cc1 | – | – | – | – | pIC50 ([1]; Table 8, read-out: PM-II IC50): < 5.00; pIC50 ([2]; 3D7, Table 8, read-out: Pf 3D7 IC50): < 5.30
21 | N=C1NC(c2ccccc2)(c2cccc(-c3ccccc3)c2)C(=O)N1C1CCCCC1 (centres unmarked) [Example 212, 3-cyclohexyl-2-imino-5-phenyl-5-(3-phenylphenyl)-imidazolidin-4-one] | 7.91 | – | – | 5.77 | –
22 | Cc1ccc(C2(c3ccc(C)cc3)NC(=N)N(C3CCCCC3)C2=O)cc1 [Example 156, 3-cyclohexyl-2-imino-5,5-bis(4-methylphenyl)-imidazolidin-4-one] | 7.85 | – | – | 5.90 | pIC50 [2, 6]: 5.90
23 | N=C1NC(c2ccc(Cl)cc2)(c2ccc(Cl)cc2)C(=O)N1C1CCCCC1 [Example 155, 5,5-bis(4-chlorophenyl)-3-cyclohexyl-2-iminoimidazolidin-4-one] | 8.22 | – | – | 5.97 | pIC50 [2, 6]: 5.97
24 | COc1ccc(C2(c3ccccc3)NC(=N)N(C3CCCCC3)C2=O)cc1 (centres unmarked) [Example 141, 3-cyclohexyl-2-imino-5-(4-methoxyphenyl)-5-phenylimidazolidin-4-one] | 7.97 | – | – | 6.27 | pIC50 [2, 6]: 6.27
25 | N=C1NC(c2ccccc2)(c2cccc(OCc3ccccc3)c2)C(=O)N1C1CCCCC1 (centres unmarked) [Example 228, 5-[3-(benzyloxy)-phenyl]-3-cyclohexyl-2-imino-5-phenylimidazolidin-4-one] | 8.54 | – | – | 6.19 | pIC50 [2, 6]: 6.19
26 | N=C1NC(c2ccc(Br)cc2)(c2ccc(Br)cc2)C(=O)N1C1CCCCC1 [Example 154, 5,5-bis(4-bromophenyl)-3-cyclohexyl-2-iminoimidazolidin-4-one] | 8.00 | – | – | 5.83 | –
27 | COc1ccc(C2(c3cccc(-c4ccccc4)c3)NC(=N)N(C3CCCCC3)C2=O)cc1 (centres unmarked) [Example 177, 3-cyclohexyl-2-imino-5-(4-methoxyphenyl)-5-(3-phenylphenyl)-imidazolidin-4-one] | 7.93 | – | – | 5.83 | pIC50 [2, 6]: 5.83
28 | COc1ccc(C2(c3ccc(OC)cc3)NC(=N)N(Cc3cccnc3)C2=O)cc1 [Example 219, 2-imino-5,5-bis(4-methoxyphenyl)-3-(pyridin-3-ylmethyl)-imidazolidin-4-one] | 8.02 | – | – | 6.24 | –
